Data from ChEMBL document CHEMBL1138974 (Bioorg Med Chem Lett, 2006).
Activity calls are given as the source filed them. No cut-off for these calls is given here.

Assays:
[1] = Ratio of drug level in brain against plasma in rat; assay type: ADME, organism-based; settings: read-out: BPR
[2] = Volume of distribution in rat; assay type: ADME, organism-based; settings: in vivo, read-out: Vss
[3] = Oral bioavailability in rat; assay type: ADME, organism-based; settings: in vivo
[4] = Intrinsic clearance in human microsome; assay type: ADME; settings: microsomes
[5] = Intrinsic clearance in rat microsome; assay type: ADME; settings: microsomes
[6] = Clearance in rat; assay type: ADME, organism-based; settings: in vivo
[7] = target: T1, Sodium- and chloride-dependent glycine transporter 2 (Homo sapiens) (UniProt Q9Y345); assay: (§1) Inhibition of [3H]glycine uptake at human GlyT2 by radiometric assay
T1 sequence (whole entry): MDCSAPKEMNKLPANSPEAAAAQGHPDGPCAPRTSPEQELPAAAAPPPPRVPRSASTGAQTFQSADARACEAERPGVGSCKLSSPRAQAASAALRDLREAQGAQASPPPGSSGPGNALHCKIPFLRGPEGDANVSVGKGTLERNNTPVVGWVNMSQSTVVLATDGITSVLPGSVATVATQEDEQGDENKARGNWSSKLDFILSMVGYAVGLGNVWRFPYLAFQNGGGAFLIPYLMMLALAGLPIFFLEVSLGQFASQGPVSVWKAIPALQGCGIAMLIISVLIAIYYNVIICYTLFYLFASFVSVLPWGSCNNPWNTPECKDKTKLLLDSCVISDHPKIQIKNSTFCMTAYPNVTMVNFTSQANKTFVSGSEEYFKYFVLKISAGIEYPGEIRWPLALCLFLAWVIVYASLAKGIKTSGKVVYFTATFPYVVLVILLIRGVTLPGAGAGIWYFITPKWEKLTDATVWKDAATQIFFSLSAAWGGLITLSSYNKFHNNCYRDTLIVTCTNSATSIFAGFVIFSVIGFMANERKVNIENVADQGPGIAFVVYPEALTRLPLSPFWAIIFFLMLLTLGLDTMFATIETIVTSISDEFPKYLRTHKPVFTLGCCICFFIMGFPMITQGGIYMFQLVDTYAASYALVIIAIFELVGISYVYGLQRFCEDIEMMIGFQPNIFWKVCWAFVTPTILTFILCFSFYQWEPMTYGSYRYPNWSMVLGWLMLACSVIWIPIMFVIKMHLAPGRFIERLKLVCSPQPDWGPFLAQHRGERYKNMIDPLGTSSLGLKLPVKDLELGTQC

[8] = target: T2, Sodium- and chloride-dependent glycine transporter 1 (Homo sapiens) (UniProt P48067); assay: (§2) Inhibition of [3H]glycine uptake at human GlyT1 by radiometric assay
T2 sequence (whole entry): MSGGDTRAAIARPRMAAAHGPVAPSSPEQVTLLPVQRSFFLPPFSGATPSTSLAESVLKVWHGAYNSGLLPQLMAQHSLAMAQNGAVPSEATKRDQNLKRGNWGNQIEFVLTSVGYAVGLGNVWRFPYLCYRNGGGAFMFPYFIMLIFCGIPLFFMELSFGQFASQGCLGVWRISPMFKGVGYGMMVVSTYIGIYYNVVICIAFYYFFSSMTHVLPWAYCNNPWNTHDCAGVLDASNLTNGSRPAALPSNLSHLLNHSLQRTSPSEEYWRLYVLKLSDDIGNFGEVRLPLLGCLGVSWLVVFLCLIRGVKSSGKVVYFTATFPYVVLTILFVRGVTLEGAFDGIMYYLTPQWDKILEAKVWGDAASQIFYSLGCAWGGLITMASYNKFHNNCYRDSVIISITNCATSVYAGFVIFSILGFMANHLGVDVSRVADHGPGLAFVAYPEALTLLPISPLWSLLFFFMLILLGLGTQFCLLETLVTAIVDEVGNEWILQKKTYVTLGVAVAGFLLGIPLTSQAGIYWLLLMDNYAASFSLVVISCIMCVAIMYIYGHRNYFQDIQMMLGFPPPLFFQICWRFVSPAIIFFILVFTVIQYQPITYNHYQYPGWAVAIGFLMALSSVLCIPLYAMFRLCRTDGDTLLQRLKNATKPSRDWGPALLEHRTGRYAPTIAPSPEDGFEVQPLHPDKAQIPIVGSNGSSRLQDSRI

[9] = Dissociation constant, pKa of the compound; assay type: physicochemical
[10] = target: T3, Sodium- and chloride-dependent glycine transporter 1 (Homo sapiens, UniProt P48067); assay: as §2
T3 sequence (P48067 whole entry): T2 sequence (whole entry)

[11] = Intrinsic clearance in mouse microsome; assay type: ADME; settings: microsomes
[12] = target: Voltage-gated inwardly rectifying potassium channel KCNH2 (Homo sapiens, UniProt Q12809); assay: Inhibition of hERG potassium channel expressed in CHO cells by whole cell patch clamp method; assay type: toxicity, cell-based
Nociceptin receptor = Nociceptin receptor (Homo sapiens, UniProt P41146); assay: Displacement of [3H]NOP from human NOP receptors expressed in HEK293 cells; assay type: cell-based; settings: hek293
[13] = target: T4, Sodium- and chloride-dependent glycine transporter 2 (Homo sapiens, UniProt Q9Y345); assay: as §1
T4 sequence (Q9Y345 whole entry): T1 sequence (whole entry)

[14] = Clearance in mouse; assay type: ADME, organism-based; settings: in vivo
[15] = Oral bioavailability in mouse; assay type: ADME, organism-based; settings: in vivo
[16] = Volume of distribution in mouse; assay type: ADME, organism-based; settings: in vivo, read-out: Vss

Sequence of Voltage-gated inwardly rectifying potassium channel KCNH2 (Q12809 whole entry): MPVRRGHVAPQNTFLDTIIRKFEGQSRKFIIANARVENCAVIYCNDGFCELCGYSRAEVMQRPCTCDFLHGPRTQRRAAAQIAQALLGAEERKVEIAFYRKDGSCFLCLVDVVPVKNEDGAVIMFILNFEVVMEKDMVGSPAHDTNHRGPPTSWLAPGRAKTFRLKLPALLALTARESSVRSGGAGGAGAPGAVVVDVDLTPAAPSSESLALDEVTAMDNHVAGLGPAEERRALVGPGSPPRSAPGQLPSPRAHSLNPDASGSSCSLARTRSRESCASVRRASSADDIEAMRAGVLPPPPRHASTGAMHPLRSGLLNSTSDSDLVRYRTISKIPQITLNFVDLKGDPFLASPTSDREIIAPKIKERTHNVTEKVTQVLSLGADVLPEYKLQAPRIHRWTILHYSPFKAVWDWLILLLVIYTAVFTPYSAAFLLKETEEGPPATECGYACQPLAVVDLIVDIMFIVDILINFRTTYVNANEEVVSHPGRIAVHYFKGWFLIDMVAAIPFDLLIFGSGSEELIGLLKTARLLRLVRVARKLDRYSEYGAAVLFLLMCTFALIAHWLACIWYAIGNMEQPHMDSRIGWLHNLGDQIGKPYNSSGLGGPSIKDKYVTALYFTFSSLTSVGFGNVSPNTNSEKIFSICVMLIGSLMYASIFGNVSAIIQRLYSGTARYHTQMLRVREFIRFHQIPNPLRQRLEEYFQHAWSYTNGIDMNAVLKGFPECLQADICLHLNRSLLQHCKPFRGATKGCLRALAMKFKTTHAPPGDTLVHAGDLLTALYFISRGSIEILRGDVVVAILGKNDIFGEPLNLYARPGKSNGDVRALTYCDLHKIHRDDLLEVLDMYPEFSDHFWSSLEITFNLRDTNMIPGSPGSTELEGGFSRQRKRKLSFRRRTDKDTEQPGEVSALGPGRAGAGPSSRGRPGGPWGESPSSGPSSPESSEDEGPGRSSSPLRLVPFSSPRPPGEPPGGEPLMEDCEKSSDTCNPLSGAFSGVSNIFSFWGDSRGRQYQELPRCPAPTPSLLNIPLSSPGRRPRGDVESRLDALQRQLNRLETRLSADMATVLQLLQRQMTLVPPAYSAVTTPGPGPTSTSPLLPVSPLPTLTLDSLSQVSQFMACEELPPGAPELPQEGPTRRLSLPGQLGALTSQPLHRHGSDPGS
Sequence of Nociceptin receptor (P41146 whole entry): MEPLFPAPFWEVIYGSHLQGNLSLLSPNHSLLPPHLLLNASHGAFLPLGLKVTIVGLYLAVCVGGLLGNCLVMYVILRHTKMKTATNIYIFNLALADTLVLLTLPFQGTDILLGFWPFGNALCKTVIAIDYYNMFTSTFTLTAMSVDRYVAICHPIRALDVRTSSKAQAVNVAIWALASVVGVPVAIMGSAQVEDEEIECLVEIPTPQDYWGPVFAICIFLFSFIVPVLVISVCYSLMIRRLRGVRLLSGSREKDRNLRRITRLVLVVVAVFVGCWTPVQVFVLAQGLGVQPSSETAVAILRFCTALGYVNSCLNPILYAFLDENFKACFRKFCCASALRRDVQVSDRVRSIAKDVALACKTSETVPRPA

Activity [7]	Activity [8] [nM]	Compound	Kp [1]	Vd [2] [L/kg]	bioavailability [3] [%]	microsomal CLint [4] [µL/min/mg]	microsomal CLint [5] [µL/min/mg]	clearance [6] [mL/min/kg]	pKa [9]	EC50 [10] [nM]	microsomal CLint [11] [µL/min/mg]	IC50 [12] [nM]	IC50 (Nociceptin receptor) [nM]	EC50 [13] [nM]	clearance [14] [mL/min/kg]	bioavailability [15] [%]	Vd [16] [L/kg]
		O=C1NCN(c2ccccc2)C12CCN(C1CCCCC1c1ccccc1)CC2 (stereo not given)	1.6	7.3	8	68	240	120									
inactive	91	O=C1NCC(c2ccc(F)cc2)C12CCN(C1CCCCC1(O)c1ccccc1)CC2 (stereo not given)							6.89								
		O=C1NCN(c2ccccc2)C12CCN(C1CCCCC1(O)c1ccc(F)cc1)CC2 (stereo not given)				78	499			24							
		O=C1NCC(c2ccccc2)C12CCN(C1CCCCC1(O)c1ccc(F)cc1)CC2 (single isomer, unassigned; diastereomer 1)				44			8.54	70	13	1800	> 10000	> 30000			
		O=C1NC[C@@H](c2ccccc2)C12CCN(C1CCCCC1c1ccccc1)CC2 (stereo in doubt; 27)	5.2	4.3		23		63	8.85	61	36	1400			99	27	8.9
